Paper PMC7689835 (Journal of Clinical Pharmacology, 2020)
Blank lines part the entries; values can stand above or below the compound they belong to.

Assays:
FLT3 kinase = conditions: read-out: dissociation constant (Kd); cited from earlier work
[1] = Population PK model of AC886; type: in vivo, human
[2] = Observed plasma PK in clinical studies; type: in vivo, human; conditions: for geometric mean ratio of AC886 AUC0-24,ss to quizartinib AUC0-24,ss: noncompartmental analysis
[3] = cited from earlier work
[4] = Population PK model of quizartinib; type: in vivo, human
[5] = cited from earlier work; remark: listed apart in the source
[6] = before relative F1 for patients was incorporated into the model
[7] = interoccasion variability, occasion 1
[8] = interoccasion variability, occasion 2
[9] = interoccasion variability, occasion 3
[10] = interoccasion variability, occasion 4

- FMET (fraction of quizartinib converted to AC886) ([1]; FIXED, based on AUC ratio in phase 2 study): 0.500
- effect of mild or moderate hepatic impairment on PK ([1]; based on baseline liver function values): no effect
- Magnitude of interindividual variability in Vcm ([1]; final estimate): 117% CV
- increase in CLm with concomitant strong CYP3A inhibitor use ([1]; final model): 10.6%
- increase in Vcm with concomitant strong CYP3A inhibitor use ([1]; final model): 192%
- IIV in CLm in healthy volunteers ([1]; healthy volunteers): 45.9% CV
- IIV in CLm in patients ([1]; patients with AML): 64.1% CV
- CLm (apparent clearance for metabolite) ([1]; population mean): 4.09 L/h
- CLm (fractional change in CLm for race black) ([1]; population mean): 0.586
- CLm (fractional change in CLm for strong CYP3A inhibitors) ([1]; population mean): 0.106
- CLm (power of BSA in CLm) ([1]; population mean): 1.60
- Vcm (fractional change in Vcm for strong CYP3A inhibitors) ([1]; population mean): 1.92
- median accumulation ratio ([2]; patients from the QuANTUM-R study, multiple daily doses): 8.4
- geometric mean ratio of AC886 AUC0-24,ss to quizartinib AUC0-24,ss ([2]; study 2689-CL-2004, 30-mg cohort): 0.544
- geometric mean ratio of AC886 AUC0-24,ss to quizartinib AUC0-24,ss ([2]; study 2689-CL-2004, 60-mg cohort): 0.485
SMILES: CC(C)(CO)c1cc(NC(=O)Nc2ccc(-c3cn4c(n3)sc3cc(OCCN5CCOCC5)ccc34)cc2)no1 [AC886]
- Kd (FLT3 kinase): 1.1 nM

SMILES: CCc1nc(C(N)=O)c(Nc2ccc(N3CCC(N4CCN(C)CC4)CC3)c(OC)c2)nc1NC1CCOCC1 [gilteritinib]
- increase in exposure with strong CYP3A inhibitor itraconazole [3]: approximately 2.2 fold
- decrease in exposure with strong CYP3A4 inducer rifampin ([3]; versus gilteritinib alone): 30%

SMILES: CO[C@@H]1[C@H](N(C)C(=O)c2ccccc2)C[C@H]2O[C@]1(C)n1c3ccccc3c3c4c(c5c6ccccc6n2c5c31)C(=O)NC4 [midostaurin]
- decrease in exposure with CYP3A4 induction by rifampicin [3]: > 10 fold
- increase in exposure with CYP3A inhibition by ketoconazole [3]: > 10 fold

- increase in CL in patients with AML (initial characterization) [4, 6]: 75%
- increase in Vc in patients with AML (initial characterization) [4, 6]: 36%
- increase in Vp1 in patients with AML (initial characterization) [4, 6]: 102%
- effect of eGFR on quizartinib CL ([4]; covariate test and sensitivity analysis): No significant effect
- Magnitude of interindividual variability in ALAG1 ([4]; final estimate): 62.0% CV
- Magnitude of interindividual variability in CL ([4]; final estimate): 55.1% CV
- Magnitude of interindividual variability in D1 ([4]; final estimate): 69.3% CV
- Magnitude of interindividual variability in F1 ([4]; final estimate): 34.8% CV
- Magnitude of interindividual variability in Ka ([4]; final estimate): 38.5% CV
- Magnitude of interindividual variability in Q1 ([4]; final estimate): 24.8% CV
- Magnitude of interindividual variability in Vc ([4]; final estimate): 27.6% CV
- Magnitude of interindividual variability in Vp1 ([4]; final estimate): 39.7% CV
- decrease in CL with strong CYP3A inhibitor use ([4]; final model): 44.1%
- increase in CL for patients with AML versus healthy volunteers ([4]; final model): 8.2%
- increase in F1 with strong CYP3A inhibitor use ([4]; final model): 13.6%
- reduction in bioavailability for patients with AML versus healthy volunteers ([4]; final model): 40.1%
- Vd ([4]; human, plasma, oral): 194 L
- IOV in CL on occasion 1 [4, 7]: 40.9% CV
- IOV in F1 on occasion 1 [4, 7]: 22.6% CV
- IOV in Vc on occasion 1 [4, 7]: 20.3% CV
- IOV in CL on occasion 2 [4, 8]: 40.9% CV
- IOV in Vc on occasion 2 [4, 8]: 20.3% CV
- IOV in CL on occasion 3 [4, 9]: 40.9% CV
- IOV in F1 on occasion 3 [4, 9]: 22.6% CV
- IOV in Vc on occasion 3 [4, 9]: 20.3% CV
- IOV in CL on occasion 4 [4, 10]: 40.9% CV
- IOV in Vc on occasion 4 [4, 10]: 20.3% CV
- ALAG1 (absorption lag time) ([4]; population mean): 0.205 h
- CL (apparent clearance for parent) ([4]; population mean): 2.77 L/h
- D1 (duration of zero-order input to depot compartment) ([4]; population mean): 0.708 h
- F1 (fractional change in F1 for strong CYP3A inhibitors) ([4]; population mean): 0.136
- F1 (fractional change in study 019 F1 for fed) ([4]; population mean): 0.0509
- Q1 (exponent for BSA on Q1) ([4]; population mean): 0.970
- Vc (exponent of [ALB/4.1] for Vc) ([4]; population mean): −0.725
- Vc (exponent of [BSA/1.9] for Vc) ([4]; population mean): 1.46
- Vp1 (exponent for BSA on Vp1) ([4]; population mean): 1.50
- Vp1 (exponent for age on Vp1) ([4]; population mean): 0.453
- Ka (first-order absorption constant for healthy participants) ([4]; population mean, healthy participants): 0.874 h⁻¹
- Ka (first-order absorption constant for patients) ([4]; population mean, patients with AML): 1.68 h⁻¹
- Ka (fractional change in Ka for fed status [019 only]) ([4]; population mean, study AC220-019, fed vs fasted): −0.512
- decrease in ka under fed versus fasted conditions ([4]; study AC220-019): 51.2%
- increase in F1 under fed versus fasted conditions ([4]; study AC220-019): 5.1%
- Tmax ([2]; human, plasma, oral, observed Tmax, patients with AML): ~2 h
SMILES: CC(C)(C)c1cc(NC(=O)Nc2ccc(-c3cn4c(n3)sc3cc(OCCN5CCOCC5)ccc34)cc2)no1 [quizartinib]
- increase in quizartinib exposure by strong CYP3A inhibitors ([5]; drug-drug interaction study with ketoconazole or fluconazole): approximately 2 fold
- effect of lansoprazole on bioavailability ([5]; phase 1 study): did not result in a meaningful change
